Test results published in patent publication US20040241706A1, “Highly specific modulators of GTPases for target validation” (IRM, LLC, priority 2002, published 2004).
Where a chain is given by its changes, count along the chain named.

Columns and labels:
GTPase mutant N116C = molecular target: T1, GTPase mutant N116C (Homo sapiens, UniProt P01112, N116C); experiment: Ras inhibitor / guanine nucleotide exchange assay with 3H-GDP, mutant N116C; assay type: binding; settings: FIG. 17
T1 construct: made in house; host or cells: E. coli BL21-Gold, pGEX vector
From the text: (§1) One exemplary assay which can be used are Ras “inhibition” or “guanine nucleotide exchange” assays, as schematically illustrated in FIG. 8, and described in detail in the Examples hereinbelow. The assay detects inhibition of wild-type and mutant Ras proteins by using ^3H-labelled GDP and cold (non-tritiated) synthetic Ras inhibitors.
FIG. 15 provides a bar chart depicting the ability of various guanosine-based modulators to displace radiolabeled GDP from the GTPase mutant N116C.
FIGS. 16 and 17 graphically illustrates the inhibitory effect of the C-6 or N-7 substituted GMP-scaffold modulators on the double mutant N116G-T114C and the mutant N116C, respectively. […] The inhibitory effect was in the range of approximately 50-80%. […]
(§2) For example, purified mutant Ras (19A-116A) or wild type H-Ras protein (0.5 to 20 μg) was incubated in 40 μL of GTP exchange buffer (50 mM Tris-HCl pH 7.5, 50 mM NaCl, 5 mM EDTA, 1 mM DTT, 1 mg/mL BSA) containing either DMSO, GTP (100 μM) or a modulator (100 μM) for 30 min at 25° C. […] Filters were dried and the bound radioactivity was measured by scintillation counting (Beckman, #LS6500).
(§3) Cold GDP was used as a positive control. […] All of the measurements are in comparison to a background radioactivity count, such that the level of inhibition for a given compound was determined by the number of counts in comparison to the control. […]

single mutant N116G Ras = molecular target: T2, single mutant N116G Ras (Homo sapiens, UniProt P01112, N116G); experiment: Ras inhibitor / guanine nucleotide exchange assay with 3H-GDP, single mutant N116G; assay type: binding; settings: FIG. 12 panel B
T2 construct: made in house; host or cells: E. coli BL21-Gold, pGEX vector
From the text: as §1
FIG. 12 provides the inhibitor assay results for compounds 43 through 45 (e.g, respectively) as compared to the positive control GTP, for the wild-type Ras protein (panel A) and the single mutant N116G (SEQ ID No. 7). […] Thus, substitution of the N116 residue with a glycine appears to be a favorable mutation leading to expansion of the GTP binding pocket. […]
as §2, §3

[1] = molecular target: T3, mutant enzyme (19A-116A) Ras binding to the Ras binding domain (RBD) of the Raf kinase (Homo sapiens, UniProt P01112, L19A/N116A); experiment: Effector binding assay: pull-down with Ras binding domain (RBD) of Raf kinase, western blot; assay type: biochemical; settings: FIG. 35
T3 construct: GST (N); made in house; host or cells: E. coli BL21-Gold, pGEX vector (Ras)
Method: The ability of the mutant enzyme (19A-116A) to bind to a known effector of H-Ras was confirmed. Using the Ras binding domain (RBD) of the Raf kinase, the ability of the mutant enzyme to undergo a conformational change upon GTP binding, and, thus, to bind the effector was determined. In brief, purified mutant or wild-type proteins (150 ng) were incubated in 1 mL of loading buffer (100 mM Tris-HCl pH 7.5, 2 mM EDTA, 1 mM DTT, 1 mg/mL BSA) in the presence of 10 mM of GDP, GTP, 7 d or both GTP and 7 d for 15 min at 25° C. for loading the protein with the appropriate nucleotides. Following loading, MgCl2 (20 mM) was added along with GST-RBD (1.2 mg), comprising Raf kinase amino acids 53-131, bound to glutathione sepharose beads. The resulting suspensions were incubated with rotation for 30 min at 4° C. The beads were then washed three times with 1 mL of washing buffer (50 mM Tris-HCl pH 7.5, 50 mM NaCl, 20 mM MgCl2, 1 mM DTT) to remove unbound H-Ras proteins. The beads were boiled in SDS loading buffer, and the samples were separated by electrophoresis. Following transfer, the PVDF membrane was probed with anti-H-Ras and the amount of H-Ras bound to the RBD glutathione sepharose beads was visualized using anti-rabbit HRP in conjunction with WestPico (Pierce).

wild type H-Ras = molecular target: T4, wild type H-Ras (Homo sapiens, UniProt P01112); experiment: Ras inhibitor / guanine nucleotide exchange assay with 3H-GDP, wild type; assay type: binding; settings: at a concentration of 100 μM
T4 construct: made in house; host or cells: E. coli BL21-Gold, pGEX vector
From the text: as §1
The GTPase modulators of the present invention were screened against wild-type and/or mutant GTPases for their effectiveness as GTPase inhibitors. […]
as §2
Cold GDP was used as a positive control. […] All of the measurements are in comparison to a background radioactivity count, such that the level of inhibition for a given compound was determined by the number of counts in comparison to the control. Thus, a high radioactivity count is indicative of a high level of binding between the mutant GTPase and the radioactive GDP.

mutant Rap1B enzyme = molecular target: T5, mutant Rap1B enzyme (Homo sapiens, UniProt P61224, L19A/N116A); experiment: Selective binding to mutant Rap1B (alanine at positions 19 and 116); settings: FIG. 33B
T5 construct: made in house; host or cells: E. coli BL21-Gold, pGEX-4T
T5 sequence (P61224 1-184 L19A/N116A): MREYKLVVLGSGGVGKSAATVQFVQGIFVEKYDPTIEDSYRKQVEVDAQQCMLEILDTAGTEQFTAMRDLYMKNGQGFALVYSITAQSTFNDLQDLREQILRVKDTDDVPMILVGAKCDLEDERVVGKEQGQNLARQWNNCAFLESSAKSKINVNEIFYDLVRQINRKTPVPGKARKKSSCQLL
From the text: (§4) To confirm the general applicability of the methods and compositions of the present invention in the context of GTPases other than H-Ras, alanine substitutions at amino acids corresponding to positions 19 and 116 of Ras were introduced into the Rap1B GTPase. As shown in the alignment of Table 1, the identical amino acid residues, i.e., leucine at position 19, and asparagine at position 116, are present in Rap1B.
(§5) The mutant Rap1B protein construct was made as described above with respect to the Ras mutant proteins. All mutant proteins were made in the pGEX-4T bacterial expression system using the Quickchange protocol […] according to the manufacturer's instructions. Mutant Rap1B cDNAs were transformed individually in BL21-Gold competent cells (Stratagene) according to the manufacturer's instructions. An overnight culture of BL21-Gold cells containing one of the GST-Rap1B plasmids described above was diluted 1:50 in Superbroth medium (Q-Biogene) supplemented with 50 mg/L carbenicillin. After it had grown to an OD=0.6, synthesis of the GST-Rap1B protein was induced by the addition of IPTG (50 mM) and by further incubation at 30° C. for 12 h. After centrifugation at 3,500 g for 15 min at 4° C., the cell pellet was frozen at −80° C. for 1 h. […] Protein concentration was determined by a Bradford assay and the protein purity was assessed by gel electrophoresis.

mutant Ras (19A-116A) = molecular target: T6, mutant Ras (19A-116A) (Homo sapiens, UniProt P01112, L19A/N116A); experiment: Ras inhibitor / guanine nucleotide exchange assay with 3H-GDP, double mutant L19A-N116A; assay type: binding; settings: for IC50: mutant (19A-116A) Ras, FIG. 34, read-out: IC50 (concentration at which 50% inhibition of GTP binding is observed); for displacement of radioactive GDP from the mutant GTPase: remaining radioactivity count
T6 construct: made in house; host or cells: E. coli BL21-Gold, pGEX vector
From the text: as §1
FIG. 11 graphically illustrates the inhibition of double mutant L19A-N116A (SEQ ID No. 11) by various C-6 substituted GTP moieties (compounds 39 through 42, presented as a-d in the figure), as compared to the negative control (nothing added to displace the radiolabeled GDP), positive control (cold GDP), and background count (no GTPase enzyme added).
The GTPase modulators of the present invention were screened against wild-type and/or mutant GTPases for their effectiveness as GTPase inhibitors. Ras inhibitor assays were performed to test the activity of the synthesized modulators against various wild-type and/or mutant GTPases of interest, and/or to compare the different modulators based upon the relative observed level of inhibition.
For example, purified mutant Ras (19A-116A) or wild type H-Ras protein (0.5 to 20 μg) was incubated in 40 μL of GTP exchange buffer (50 mM Tris-HCl pH 7.5, 50 mM NaCl, 5 mM EDTA, 1 mM DTT, 1 mg/mL BSA) containing either DMSO, GTP (100 μM) or a modulator (100 μM) for 30 min at 25° C. This pre-incubation was followed by the additions of 2 μCi ^3H-GDP (NEN, #NET966) and, 10 min later, 25 mM MgCl2. After another 5 min of incubation, the reaction mixture was applied to a nitrocellulose filter (Millipore, #HAWP02500) pre-wetted with wash buffer (50 mM Tris-HCl pH 7.5, 10 mM MgCl2), the filter was then washed using 10 mL of wash buffer. Filters were dried and the bound radioactivity was measured by scintillation counting (Beckman, #LS6500).
Cold GDP was used as a positive control. Since the positive control naturally replaces the radioactive GDP in both the wild-type and mutant GTPase proteins, significant drops in radiolabeling are observed. Water was used as a negative control. All of the measurements are in comparison to a background radioactivity count, such that the level of inhibition for a given compound was determined by the number of counts in comparison to the control. Thus, a high radioactivity count is indicative of a high level of binding between the mutant GTPase and the radioactive GDP.

wild-type Rap1B enzyme = molecular target: T7, wild-type Rap1B enzyme (Homo sapiens, UniProt P61224); experiment: Selective binding, wild-type Rap1B; settings: FIG. 33B
T7 construct: GST (N); made in house; host or cells: E. coli BL21-Gold, pGEX-4T (described for the mutant; inferred for the wild type)
T7 sequence (P61224 1-184): T5 sequence (P61224 1-184 L19A/N116A) with A19L, A116N
From the text: as §4, §5

Compound | inhibition of the mutant GTPase (decrease in radiolabel remaining bound) (single mutant N116G Ras) | effector (Raf RBD) binding of the mutant enzyme [1] | binding to the mutant Rap1B enzyme (mutant Rap1B enzyme) | IC50 (mutant Ras (19A-116A)) [nM] | displacement of radioactive GDP from the mutant GTPase (mutant Ras (19A-116A)) | effect on the wild-type Rap1B enzyme (wild-type Rap1B enzyme) | other results
6-S-mercaptoguanosine-5′-phosphate [Compound 82] | – | – | – | – | – | – | inhibitory effect on the N116C mutant (GTPase mutant N116C): 50-80%
Nc1nc(=S)c2ncn([C@@H]3O[C@H](COP(=O)(O)OP(=O)(O)OP(=O)(O)O)[C@@H](O)[C@H]3O)c2[nH]1 [Compound 45, 6-S-mercaptoguanosine-5′-triphosphate] | significantly inhibit | – | – | – | – | – | –
Nc1nc2c(ncn2[C@@H]2O[C@H](COP(=O)(O)OP(=O)(O)O)[C@@H](O)[C@H]2O)c(=O)[nH]1 [GDP, reference compound] | – | – | – | ~1500 | – | – | –
(2-phenyl)ethyl-GTP [Compound 52] | – | prompts effector binding | bind tightly | – | displaced the radioactive GDP | negligably affecting | –

More lines, main results first:

inhibition of the mutant GTPase (decrease in radiolabel remaining bound) (single mutant N116G Ras) | effector (Raf RBD) binding of the mutant enzyme [1] | binding to the mutant Rap1B enzyme (mutant Rap1B enzyme) | IC50 (mutant Ras (19A-116A)) [nM] | displacement of radioactive GDP from the mutant GTPase (mutant Ras (19A-116A)) | effect on the wild-type Rap1B enzyme (wild-type Rap1B enzyme) | Compound | other results
significantly inhibit | – | – | – | – | – | C=CCOc1nc(N)nc2c1ncn2[C@@H]1O[C@H](COP(=O)(O)OP(=O)(O)OP(=O)(O)O)[C@@H](O)[C@H]1O [Compound 43, 6-O-allyl guanosine-5′-triphosphate] | –
– | prevents effector binding | bind tightly | 300 | displaced the radioactive GDP | negligably affecting | Nc1nc2c(c(CCc3ccccc3)cn2[C@@H]2O[C@H](COP(=O)(O)OP(=O)(O)O)[C@@H](O)[C@H]2O)c(=O)[nH]1 [Compound 60, 7-deaza-7-(2″-phenyl)ethyl guanosine-5′-diphosphate] | inhibition of wild-type H-Ras (wild type H-Ras): does not inhibit; potency relative to GDP at displacing GTP from the mutant GTPase protein (mutant Ras (19A-116A); ratio of IC50 values): 5 times
